Residues, ends and D or L forms follow the SMILES beside them. *: point of attachment. HYNIC = NNc1ccc(C(=O)*)cn1
Experiments:
[1] = In vitro stability in succinate buffer (peptide reaction mixture), %RCP by ITLC; format: physicochemical; details: room temperature, TLC, n = 3
Procedure: (§1) The radiochemical purity was determined by instant thin layer chromatography (ITLC) in different mobile phases such as methyl ethyl ketone (MEK), acetonitrile/water (50/50) and citrate solvent (0.1 M, pH 5.2) using a Lablogic mini scan TLC scanner (Sheffield, UK) and Laura image analysis software. In MEK, free ^99mTcO4^− migrated with the solvent front, while radiolabeled peptide remained at the application point. In the acetonitrile/water system, the colloids remained at the application point, while radiolabeled peptide migrated in front of solvent. The amount of labeled co-ligand was determined by citrate solvent, that free ^99mTcO4 Na and labeled co-ligand migrate in front of solvent while both RHT and labeled peptide (^99mTc-FROP) remind at the origin. A NaI (Tl) gamma detector (Delshid, Tehran, Iran) was used to for measurement of radioactivity.
[…] For serum stability, ^99mTc-HYNIC-FROP (30 μL) was incubated with freshly human plasma serum (90 μL) in triplicate at 37 °C. At 1 h of incubation, the plasma proteins were precipitated with a mixture of acetonitrile/ethanol (1:1 v/v) and centrifugation. The supernatant layer was filtered through a 0.22 μm filter and then the fraction was analyzed by RP-HPLC. Partition coefficient of ^99mTc-HYNIC-FROP was determined via method that previously was described.

MCF-7 cells [2] = test: Internalization study in MCF-7 cells; format: cell-based, human; details: MCF-7, 40 nM, acid wash urea buffer pH 2.5
Procedure: For internalization experiment, MCF-7 cells (1 × 10^6 cells) were seeded on the single plates and incubated with ^99mTc-HYNIC-FROP (40 nM) at 4 °C. After 1 h incubation, medium was removed and cells were washed with ice-cold serum free medium. Then 1 mL complete medium was added to each dish and cells were further incubated for 0.5, 1, 2, 6 and 24 h at 37 °C. After incubation, medium was removed from cellular plate and then was washed once with cold serum free medium. Then supernatant was collected, and for removing radioactivity bound to the surface of the cells, the acid wash with urea buffer (pH 2.5) was used. The internalized radiolabeled peptide was recovered by solubilizing the cells with 1 M NaOH at 37 °C for 5 min, and the surface-bound (acid-wash) and internalized (acid-resistant) radioactivity were measured with the gamma counter.

MCF-7 cells [3] = test: In vitro specific binding (blocking) on MCF-7 cells; format: cell-based, human; details: pre-saturation 0.5 h at 37 °C with unlabeled FROP
Procedure: For specific binding experiment, the MCF-7 cells were saturated with 500-fold excess of unlabeled peptide prior adding of the ^99mTc-HYNIC-FROP to cells for 30 min.

[4] = test system: MCF-7 tumor bearing mouse; test: Planar gamma camera tumor imaging; format: in vivo; details: MCF-7 xenograft nude mouse, i.v., 15 min p.i.
Procedure: For gamma camera imaging, MCF-7 tumor bearing mouse was intravenously injected through the tail with ^99mTc-HYNIC-FROP. After 15 min p.i. the mouse immediately was anesthetized using ketamine/xylazine and whole-body dynamic imaging was conducted. The imaging was performed at the department of radiology at Mazandaran Hospital by a dual-head e.cam gamma camera (Siemens Medical Systems, Inc.), equipped with a low-energy, high-resolution collimator. The evaluation of the image was performed using an e-soft (Siemens Medical Systems).

[5] = test system: MCF-7, A-549 SKOV-3, PC-3, T47D and HFFF2 cell lines; test: Cellular uptake on different cell lines; format: cell-based, human; details: 40 nM, 37 °C, 1 h
Procedure: The cellular uptake studies of ^99mTc-HYNIC-(tricine/EDDA)-FROP were performed on MCF-7, A-549 SKOV-3, PC-3, T47D and HFFF2 cell lines. The cells (5 × 10^5) were seeded in 12-well plates overnight and incubated with ^99mTc-HYNIC-FROP (40 nM) at 37 °C for 1 h. Incubation of the samples was terminated by removing medium and washing with cold serum-free medium. Thereafter, the cells were detached by trypsin and the radioactivity in the cell suspension was quantified.

[6] = In vitro stability in normal saline at room temperature; format: physicochemical; details: TLC, n = 3
Procedure: as §1
(§2) The stability of ^99mTc-HYNIC-FROP in normal saline was evaluated using ITLC at various times (2, 4, 6 and 24 h) at room temperature. For serum stability, ^99mTc-HYNIC-FROP (30 μL) was incubated with freshly human plasma serum (90 μL) in triplicate at 37 °C. At 1 h of incubation, the plasma proteins were precipitated with a mixture of acetonitrile/ethanol (1:1 v/v) and centrifugation. The supernatant layer was filtered through a 0.22 μm filter and then the fraction was analyzed by RP-HPLC. Partition coefficient of ^99mTc-HYNIC-FROP was determined via method that previously was described.

MCF-7 cells [7] = test: Saturation binding assay on MCF-7 cells; parameters: species or system human; details: saturation 30–250 nM, 30 min, nonlinear regression
Procedure: The cell-binding affinity of ^99mTc-HYNIC-FROP was assessed with saturation method. For determining of […] (Kd) and total number of binding sites (Bmax), ^99mTc-HYNIC-FROP was prepared in high radiochemical purity. MCF-7 cells were seeded into 24-well plates and incubated overnight. Then cells were incubated with various concentrations of radiolabeled peptide (30–250 nM) for 30 min. One dish was added blocking solution containing of 500-fold excess of highest concentration of ^99mTc-HYNIC-FROP. The cells were then washed with cold serum free medium to remove free radioactivity. The cells with bound radioactivity detached with trypsin and collected and radioactivity was measured. The (Kd) and (Bmax) value were calculated using Graphpad prism software based on specific binding of ^99mTc-HYNIC-FROP on MCF-7 cells.

[8] = Partition coefficient between n-octanol and PBS; format: physicochemical; details: distribution between n-octanol and PBS; method of ref 22; mean ± SD; read-out: Log p (partition coefficient)
Procedure: as §2

[9] = listed as 99mTc-HYNIC-(tricine/EDDA)-FROP
[10] = 5 × 10^5 cells, cell-associated radioactivity

CSCC[C@H](NC(=O)[C@H](CC(C)C)NC(=O)[C@H](CCC(=O)O)NC(=O)[C@H](Cc1ccc(O)cc1)NC(=O)[C@H](CC(=O)O)NC(=O)[C@@H](N)CCC(=O)O)C(=O)N[C@@H](CC(=O)O)C(=O)N[C@@H](CC(C)C)C(=O)N[C@@H](CC(C)C)C(=O)N[C@@H](C)C(=O)N[C@@H](Cc1ccc(O)cc1)C(=O)N[C@@H](CC(C)C)C(=O)N[C@@H](CCCCNC(=O)c1ccc(NN)nc1)C(=O)O [^99mTc-HYNIC-FROP, metal not drawn] (H-EDYELMDLLAYLK(HYNIC)-OH)
%RCP in succinate buffer (peptide reaction mixture) ([1]; 2 h): 99.6 ± 0.2% | %RCP in succinate buffer (peptide reaction mixture) ([1]; 4 h): 99.5 ± 0.4% | %RCP in succinate buffer (peptide reaction mixture) ([1]; 6 h): 99.1 ± 0.9% | %RCP in succinate buffer (peptide reaction mixture) ([1]; 24 h): 96.8 ± 2.4% | internalized radiolabeled peptide, % of the total radioactivity in the cells (MCF-7 cells [2]; 1 h at 4 °C then 30 min at 37 °C): 10.6 ± 0.8% | internalized radiolabeled peptide, % of the total radioactivity in the cells (MCF-7 cells [2]; 1 h at 4 °C then 6 h at 37 °C): 18.3 ± 2.3% | binding to MCF-7 cells with 500-fold excess of unlabeled peptide (FROP) (MCF-7 cells [3]): significant reduction | tumor visualization by planar gamma imaging [4]: tumor was clearly visualized | tumor visualization by planar gamma imaging [4, 9]: tumor was clearly visible | MCF-7/A-549 ratio of uptake [5, 10]: 8.2 | MCF-7/PC-3 ratio of uptake [5, 10]: 2.3 | MCF-7/SKOV-3 ratio of uptake [5, 10]: 8.8 | MCF-7/T47D ratio of uptake [5, 10]: 4.5 | MCF-7/HFFF2 ratio of uptake ([5]; HFFF2 = normal human fibroblast): 9.7 | %RCP in normal saline ([6]; 2 h): 99.5 ± 0.4% | %RCP in normal saline ([6]; 4 h): 99.1 ± 0.9% | %RCP in normal saline ([6]; 6 h): 99 ± 0.8% | %RCP in normal saline ([6]; 24 h): 94.6 ± 2.7% | Bmax (maximum number of binding sites) (MCF-7 cells [7]; listed as 99mTc-HYNIC-(tricine-EDDA)-Lys-FROP): 4.5 ± 0.6 × 10^7 CPM/pMol | Bmax (maximum number of binding sites) (MCF-7 cells [7]; [9]): (4.5±0.6)·10^7 CPM/pMol | logD [8]: -2.03 ± 0.03

— article PMC5817723, “^99mTc-HYNIC-(tricine/EDDA)-FROP peptide for MCF-7 breast tumor targeting and imaging” (Journal of Biomedical Science, 2018)
